In assay [1] the test system is Pseudomonas aeruginosa. In words: Antibacterial activity against Pseudomonas aeruginosa PAO1. It is filed as functional.
For assay [2], the system named is Escherichia coli. The assay can be described thus: Inhibition of transcription-translation process in Escherichia coli. In kind it is functional. Conditions: Escherichia coli.
The next assay deals with Klebsiella pneumoniae. In words: Antibacterial activity against Klebsiella pneumoniae ATCC 700603. It is filed as functional.
In assay [3] the test system is Escherichia coli. The assay can be described thus: microbe, parasite or virus in culture. Conditions: ATCC 25922.
Description: Antibacterial activity against Escherichia coli ATCC 25922
Assay [4] has as its system Pseudomonas aeruginosa. The assay can be described thus: Antibacterial activity against mexABCDXY-deficient Pseudomonas aeruginosa PAO1. It is filed as functional.
The test system of assay [5] is Escherichia coli. In words: microbe, parasite or virus in culture. Conditions: ATCC 25922. This is another data set of the same source.
Description: Antibacterial activity against tolC-deficient Escherichia coli ATCC 25922
In the next assay the test system is Acinetobacter baumannii. In words: Antibacterial activity against Acinetobacter baumannii ARC 3495. It is filed as functional.

≈ marks a conversion by molar mass, not a printed value.

Usually IC50 stands for the midpoint of a concentration-inhibition curve. Read a high IC50 as a need for much substance.

`CN(CC(=O)O)NC(=O)C[C@H](N)C[C@@H](O)CNCCF`: the MIC in the assay on Pseudomonas aeruginosa [1] is more than 256 µg/mL; with Klebsiella pneumoniae, 64 µg/mL (≈ 217 µM); with Escherichia coli [3] it was 64 µg/mL (≈ 217 µM); in the assay with Pseudomonas aeruginosa [4] it was 256 µg/mL (≈ 870 µM); in the assay on Escherichia coli [5] it was 128 µg/mL (≈ 435 µM); in the assay with Acinetobacter baumannii it was 128 µg/mL (≈ 435 µM). The compound further showed an IC50 in the assay with Escherichia coli [2] of 2.3 µM.

As for `CN(CC(=O)O)NC(=O)C[C@H](N)C[C@@H](O)CNCc1ccccn1`, the MIC was more than 256 µg/mL against Pseudomonas aeruginosa [1]; more than 256 µg/mL against Klebsiella pneumoniae; more than 256 µg/mL with Escherichia coli [3]; more than 256 µg/mL against Pseudomonas aeruginosa [4]; 256 µg/mL (≈ 754 µM) against Escherichia coli [5]; more than 256 µg/mL against Acinetobacter baumannii. Moreover, in the assay on Escherichia coli [2], inhibition was half-maximal at 11 µM (IC50).

For `CN(CC(=O)O)NC(=O)C[C@H](N)C[C@@H](O)CNC(CCN)c1ccccc1` (some centres undefined), the MIC is more than 256 µg/mL against Pseudomonas aeruginosa [1]; 64 µg/mL (≈ 168 µM) against Klebsiella pneumoniae; 256 µg/mL (≈ 671 µM) in the assay with Escherichia coli [3]; 32 µg/mL (≈ 83.9 µM) against Pseudomonas aeruginosa [4]; 128 µg/mL (≈ 336 µM) against Escherichia coli [5]; more than 256 µg/mL against Acinetobacter baumannii. This compound also gave an IC50 in the assay on Escherichia coli [2] of 2.3 µM.

Take `CN(CC(=O)O)NC(=O)C[C@H](N)C[C@@H](O)CNCCC(N)=O`: the MIC in the assay on Pseudomonas aeruginosa [1] is more than 256 µg/mL; in the assay with Klebsiella pneumoniae, more than 256 µg/mL; in the assay with Escherichia coli [3], more than 256 µg/mL; against Pseudomonas aeruginosa [4], more than 256 µg/mL; with Escherichia coli [5], 256 µg/mL (≈ 802 µM); against Acinetobacter baumannii, more than 256 µg/mL. Besides, half-maximal inhibition in the assay with Escherichia coli [2] (IC50) required 4 µM.

`CN(CC(=O)O)NC(=O)C[C@H](N)C[C@@H](O)CNCCO`: the MIC with Pseudomonas aeruginosa [1] came to 512 µg/mL (≈ 1750 µM); against Klebsiella pneumoniae, 64 µg/mL (≈ 219 µM); against Escherichia coli [3], 64 µg/mL (≈ 219 µM); with Pseudomonas aeruginosa [4] it was 128 µg/mL (≈ 438 µM); in the assay with Escherichia coli [5], 128 µg/mL (≈ 438 µM); in the assay on Acinetobacter baumannii, 64 µg/mL (≈ 219 µM). Moreover, the IC50 in the assay on Escherichia coli [2] is 0.63 µM.

`CN(CC(=O)O)NC(=O)C[C@H](N)C[C@@H](O)CN` [NEGAMYCIN]: the MIC with Pseudomonas aeruginosa [1] was found to be 32 µg/mL (≈ 129 µM); with Klebsiella pneumoniae, 32 µg/mL (≈ 129 µM); against Escherichia coli [3] it was 16 µg/mL (≈ 64.4 µM); in the assay on Pseudomonas aeruginosa [4] it was 16 µg/mL (≈ 64.4 µM); in the assay with Escherichia coli [5], 16 µg/mL (≈ 64.4 µM); in the assay on Acinetobacter baumannii it was 16 µg/mL (≈ 64.4 µM). In addition, the IC50 in the assay with Escherichia coli [2] was found to be 1.7 µM.

Take `CN(CC(=O)O)NC(=O)C[C@H](N)C[C@@H](O)CNCCCCN`: the MIC came to 128 µg/mL (≈ 401 µM) against Pseudomonas aeruginosa [1]; 16 µg/mL (≈ 50.1 µM) in the assay on Klebsiella pneumoniae; 32 µg/mL (≈ 100 µM) in the assay on Escherichia coli [3]; 64 µg/mL (≈ 200 µM) in the assay with Pseudomonas aeruginosa [4]; 32 µg/mL (≈ 100 µM) with Escherichia coli [5]; 16 µg/mL (≈ 50.1 µM) in the assay on Acinetobacter baumannii. This compound registered an IC50 in the assay on Escherichia coli [2] of 0.74 µM.

As for `CN(CC(=O)O)NC(=O)C[C@H](N)C[C@@H](O)CNC[C@@H](O)CN`, the MIC against Pseudomonas aeruginosa [1] was 256 µg/mL (≈ 797 µM); against Klebsiella pneumoniae, 64 µg/mL (≈ 199 µM); in the assay on Escherichia coli [3], 256 µg/mL (≈ 797 µM); in the assay on Pseudomonas aeruginosa [4] it was 128 µg/mL (≈ 398 µM); against Escherichia coli [5], 64 µg/mL (≈ 199 µM); with Acinetobacter baumannii, 128 µg/mL (≈ 398 µM). In addition, 2.5 µM corresponded to half-maximal inhibition in the assay on Escherichia coli [2] (IC50).

As to `CN(C)CCCNC[C@H](O)C[C@@H](N)CC(=O)NN(C)CC(=O)O`, the MIC in the assay on Pseudomonas aeruginosa [1] was more than 256 µg/mL; with Klebsiella pneumoniae, 256 µg/mL (≈ 768 µM); in the assay with Escherichia coli [3], more than 256 µg/mL; with Pseudomonas aeruginosa [4] it was more than 256 µg/mL; in the assay with Escherichia coli [5], more than 256 µg/mL; against Acinetobacter baumannii it was 256 µg/mL (≈ 768 µM). It took 15 µM to reach half-maximal inhibition in the assay with Escherichia coli [2] (IC50).

With `CN(CC(=O)O)NC(=O)C[C@H](N)C[C@@H](O)CNCC1CNC1`, the MIC against Pseudomonas aeruginosa [1] was found to be 256 µg/mL (≈ 807 µM); with Klebsiella pneumoniae, 64 µg/mL (≈ 202 µM); in the assay with Escherichia coli [3], 256 µg/mL (≈ 807 µM); with Pseudomonas aeruginosa [4], 128 µg/mL (≈ 403 µM); in the assay with Escherichia coli [5], 128 µg/mL (≈ 403 µM); in the assay on Acinetobacter baumannii it was 128 µg/mL (≈ 403 µM). Besides, half-maximal inhibition with Escherichia coli [2] (IC50) required 3.9 µM.

As for `CC(=O)NCCCNC[C@H](O)C[C@@H](N)CC(=O)NN(C)CC(=O)O`, the MIC against Pseudomonas aeruginosa [1], in the assay on Klebsiella pneumoniae, in the assay on Escherichia coli [3], in the assay with Pseudomonas aeruginosa [4], with Escherichia coli [5] and in the assay with Acinetobacter baumannii was more than 512 µg/mL in each case. This compound showed an IC50 with Escherichia coli [2] of 19 µM.

On to `CN(CC(=O)O)NC(=O)C[C@H](N)C[C@@H](O)CNCCCO`, for which the MIC against Pseudomonas aeruginosa [1] was more than 1020 µg/mL; against Klebsiella pneumoniae, 512 µg/mL (≈ 1670 µM); in the assay with Escherichia coli [3], 512 µg/mL (≈ 1670 µM); in the assay with Pseudomonas aeruginosa [4], 1020 µg/mL (≈ 3340 µM); in the assay on Escherichia coli [5] it was 128 µg/mL (≈ 418 µM); in the assay with Acinetobacter baumannii it was 256 µg/mL (≈ 836 µM). The compound further came in with an IC50 in the assay with Escherichia coli [2] of 11 µM.

The values above are taken from ChEMBL document CHEMBL3621045, “Structural Insights Lead to a Negamycin Analogue with Improved Antimicrobial Activity against Gram-Negative Pathogens” (ACS Med Chem Lett, 2015).
